Values belong to the substance of their own block, whether it stands above or below them.
Legend:
[1] = test system: F2 (prothrombin fragment 2); test: HSQC NMR of 15N-labeled F2 with thrombin or thrombin-derived peptide; type: binding, human; details: F2:peptide ratio as printed
Protocol: Uniform ^15N and ^13C/^15N isotopic labeling of F2 was achieved as described previously. Once labeled, F2 preparations prepared and pH adjusted, 25 μL of D2O was added to the protein solution to provide the NMR deuterium lock signal. For the titration experiments, small aliquots of the FVa-HC or FPRck-thrombin, both in 2 mM HEPES, 50 mM sodium phosphate buffer, pH 7, were added to samples of ^15N-labeled F2 up to a molar ratio of ~10:1. […]
All NMR experiments were carried out at 35° C on a Bruker Avance500 or an Avance800 spectrometer equipped with triple-resonance (^1H, ^13C, and ^15N) and three-axis gradient probes. Two-dimensional and three-dimensional NMR data collected for ^15N- and ^13C/^15N-labeled F2 included ^1H-^15N HSQC, HNCO, HN(CA)CO, HNCA, HN(CO)CA, CBCA(CO)NH and HNCACB[57]–[59]. Water suppression was achieved using the WATERGATE method with a 3:9:19 selective pulse incorporated in all the three-dimensional pulse sequences. […]
synthesized a peptide corresponding to residues 91- 101 of human thrombin with two cysteine residues added to form a disulfide bond between the N- and C-terminal en ds of the p eptide (s ee Experimental Procedures). […] Potential binding of the thrombin- derived peptide with F2 was monitored by the 1H-15N HSQC spectra of 15N-labeled F2 with a F2:peptide ratio of 3:1. […]

[2] = test system: FXa/PCPS, prothrombin activation; test: Inhibition of FXa-mediated prothrombin activation by F2-derived peptides in the absence of FVa; type: biochemical, human; details: 300 nM prothrombin, 5 mM CaCl2, 5 μM DAPA, 50 μM PCPS, 20 nM FXa
Protocol: Figure 3 Inhibition of FXa-mediated prothrombin activation by synthetic peptides derived from F2. […] Reactions were started by addition of 20 nM FXa. […] Reactions were initiated by addition of 0.1 nM FXa. Non-linear regression analysis was carried out to determine the IC50 and the apparent Ki was calculated using the Cheng-Prusoff equation.
(§1) Reactions were started with addition of FXa (0.1 nM), and monitored in SpectraMax Gemini fluorescence plate reader (Molecular Devices, Sunnyvale, California) at excitation and emission wavelengths of 280 nm and 545 nm, respectively, with a 530 nm emission cut off filter in the emission beam at 25 °C. In the absence of FVa, reactions were carried out as described above; however, the reactions were started with the addition of 20 nM FXa. The Ki values were estimated using the Cheng-Prusoff equation (IC50 = [1 + ([S]/KM)] Ki) based on the IC50 values obtained by nonlinear regression of a rectangular hyperbola, whereby [S] is the prothrombin concentration and KM is the Michaelis constant of prothrombinase for prothrombin determined in a separate experiment as described previously.

[3] = target: T1, prothrombinase (FXa/FVa/PCPS), prothrombin activation (Homo sapiens, UniProt P00742+P12259); test: Relative rate of prothrombin activation with F2-derived peptides (screen, Fig. S1); type: biochemical; details: peptide 0, 50, 200, 500 μM; 300 nM prothrombin, 5 mM CaCl2, 3 μM DAPA, 50 μM PCPS, 5 nM FVa, 0.05 nM FXa
T1 construct: purchased Haematologic Technologies, Inc (FXa, FVa); Enzyme Research Laboratories (prothrombin)
Protocol: as §1
Figure S1. Relative rate of prothrombin activation in the presence of each of the peptides at various concentrations. Initial rates of prothrombin activation were determined from reactions containing 300 nM prothrombin. 5 mM CaCl2, 3 μM DAPA, 50 μM PCPS, 5 nM FVa and 0.05 nM FXa. Relative rates of prothrombin activation are shown for each concentration of peptide at […]
(1 picture or pasted object on this page, not shown here)

[4] = pH 7.4
[5] = test system: F2 (prothrombin fragment 2); details: thrombin/F2 molar ratios 1:30 to 1:10; clusters Asp68–Lys81 and Ala96–Asp108; ref (9) Koutychenko, A. (2002); cited from earlier work
Description: page 3: plasma-derived material, indicating purity and functional integrity of the recombinant F2 protein (9). […] Not abl y, there were two upfield -shifted meth yl proton resonances, which are common for a conserved Leu residue in all kringle domains (10 –12) .

[6] = test system: prothrombinase; details: cited from earlier work
Description: It has been widely accepted that FVa alone increases the rate of thrombin generation by 3 orders of magnitude while the membrane surface alone increases the catalytic efficiency of thrombin generation by 2 orders of magnitude, which together increases its catalytic efficiency by 5 orders of magnitude. These individual contributions of the prothrombinase components toward overall thrombin generation, however, were not observed in our experiments (Table 1). […] The 5-orders of magnitude ...

T1 sequence (P12259 29-737 limits assumed): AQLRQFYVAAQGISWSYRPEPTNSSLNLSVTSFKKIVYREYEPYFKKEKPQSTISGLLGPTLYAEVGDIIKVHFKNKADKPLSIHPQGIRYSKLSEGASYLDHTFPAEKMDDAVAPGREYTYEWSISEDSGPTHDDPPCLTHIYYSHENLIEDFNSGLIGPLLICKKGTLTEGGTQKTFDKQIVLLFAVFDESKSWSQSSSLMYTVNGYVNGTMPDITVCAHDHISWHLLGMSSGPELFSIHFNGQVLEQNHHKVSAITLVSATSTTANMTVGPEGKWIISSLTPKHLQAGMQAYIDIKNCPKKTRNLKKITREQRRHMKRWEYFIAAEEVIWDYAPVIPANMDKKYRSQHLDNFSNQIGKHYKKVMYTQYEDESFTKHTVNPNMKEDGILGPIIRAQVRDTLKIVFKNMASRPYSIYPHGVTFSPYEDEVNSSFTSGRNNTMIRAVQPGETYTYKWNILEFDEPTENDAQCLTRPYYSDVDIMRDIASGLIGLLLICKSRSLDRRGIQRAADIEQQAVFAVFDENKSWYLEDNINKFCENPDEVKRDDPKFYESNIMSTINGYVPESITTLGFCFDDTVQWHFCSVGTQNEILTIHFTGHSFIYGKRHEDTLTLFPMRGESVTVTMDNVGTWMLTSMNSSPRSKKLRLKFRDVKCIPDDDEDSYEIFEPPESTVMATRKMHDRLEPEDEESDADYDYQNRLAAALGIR
T1 sequence (P12259 1574-2224 limits assumed): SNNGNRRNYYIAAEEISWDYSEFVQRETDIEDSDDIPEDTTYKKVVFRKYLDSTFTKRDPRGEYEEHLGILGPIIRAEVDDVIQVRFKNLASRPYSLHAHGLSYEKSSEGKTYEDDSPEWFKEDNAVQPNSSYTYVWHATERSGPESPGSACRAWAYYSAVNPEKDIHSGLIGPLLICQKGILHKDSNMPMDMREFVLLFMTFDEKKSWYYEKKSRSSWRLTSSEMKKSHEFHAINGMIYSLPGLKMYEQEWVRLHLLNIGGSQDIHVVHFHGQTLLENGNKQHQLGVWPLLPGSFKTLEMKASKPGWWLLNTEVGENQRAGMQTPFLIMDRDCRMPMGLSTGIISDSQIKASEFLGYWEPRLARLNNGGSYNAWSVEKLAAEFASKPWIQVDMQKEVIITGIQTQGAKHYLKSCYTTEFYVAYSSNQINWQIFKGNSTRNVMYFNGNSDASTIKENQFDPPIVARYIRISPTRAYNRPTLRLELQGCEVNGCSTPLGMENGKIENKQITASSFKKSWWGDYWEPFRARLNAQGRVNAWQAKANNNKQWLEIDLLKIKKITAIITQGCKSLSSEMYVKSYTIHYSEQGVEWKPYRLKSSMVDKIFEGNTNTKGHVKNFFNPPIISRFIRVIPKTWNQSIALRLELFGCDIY
T1 sequence (P00742 41-179 partner limits assumed): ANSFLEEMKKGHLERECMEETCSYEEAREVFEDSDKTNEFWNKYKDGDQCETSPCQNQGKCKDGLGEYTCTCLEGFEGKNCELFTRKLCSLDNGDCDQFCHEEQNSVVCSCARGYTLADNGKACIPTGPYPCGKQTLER
T1 sequence (P00742 235-488 partner limits assumed): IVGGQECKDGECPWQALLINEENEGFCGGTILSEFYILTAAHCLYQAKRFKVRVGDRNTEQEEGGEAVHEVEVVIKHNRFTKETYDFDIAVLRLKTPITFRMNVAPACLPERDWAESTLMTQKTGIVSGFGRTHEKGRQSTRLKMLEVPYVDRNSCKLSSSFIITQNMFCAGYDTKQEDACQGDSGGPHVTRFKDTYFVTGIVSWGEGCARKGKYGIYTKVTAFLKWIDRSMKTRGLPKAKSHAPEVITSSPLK

Substance: CH91PRYNWRENLDR101C (disulfide) [thrombin-derived peptide, residues 91-101 in the B-chain of human thrombin with two Cys residues added, cyclic]
chemical shift changes in 15N-F2 versus intact thrombin [1]: smaller chemical shift changes

Substance: EGSSVNLSPPLE [F2P1, F2-derived peptide, prothrombin residues 157-168]
inhibition of prothrombin activation in the absence of FVa [2]: inhibited prothrombin activation
dose-dependent inhibition of prothrombin activation [3]: inhibited prothrombin activation in a dose-dependent manner

dose-dependent inhibition of prothrombin activation [3]: did not
Substance: YVAGKPGDFGY [F2P6, F2-derived peptide, prothrombin residues 232-242]

solubility [4]: not soluble
Substance: QDFNSAVQLVEN [F2P5]

Substance: DGLDEDSDRAIEGR [F2P8, F2-derived peptide, prothrombin residues 258-271]
inhibition of prothrombin activation in the absence of FVa [2]: inhibited prothrombin activation
dose-dependent inhibition of prothrombin activation [3]: inhibited prothrombin activation in a dose-dependent manner

Substance: thrombin
perturbed HSQC peaks of 15N-F2 [5]: two major clusters

dose-dependent inhibition of prothrombin activation [3]: did not
Substance: DLNYS*EEAVEEETG [F2P7, F2-derived peptide, prothrombin residues 244-257, cysteine changed to serine]

Substance: FVa: factor Va, protein cofactor of prothrombinase
increase in rate of thrombin generation by FVa alone [6]: 3 orders of magnitude

solubility [4]: not soluble
Substance: LAWASAQAKALSKH [F2P4]
